Tested on: intestinal fat absorption
Assay: Intestinal fat absorption reduction determination (gravimetric fecal fat content) in dogs
Format: in vivo
Conditions: male beagles, oral gavage, dosing solution 0.5 mg/mL, 1 mL per kg body weight, single daily dose on Days 0 and 5-12; fecal fat determined gravimetrically
Excerpt: Healthy, young adult (1-2 years of age) male beagles (Marshall Farms, North Rose, New York, NY 14516) weighing 11.45 - 12.45 kg at the start of the treatment period were employed as test subjects. The animals were housed individually in standard caging meeting or exceeding the USDA regulations (U.S. Department of Agriculture, Animal Welfare, Final Rules. 9 C.F.R. Parts 1-3, 1995).
The test compound was provided as a water-soluble powder. The dosing solution, administered by oral gavage, was provided employing a 0.025 M citrate buffer (approx. pH = 3) prepared using anyhdrous citric acid (0.4 g/mL) and anhydrous sodium citrate (0.1 g/mL) as the test vehicle. The dosing solution was prepared at 0.5 mg/mL activity so that 1 mL was delivered per kg body weight. Following a fourteen day acclimation period (designated as Days -14 to -1), during which time the test animals were evaluated for certain criteria including determination of body weight, physical examinations, and initial fecal specimen collection, a sixteen day evaluation study was effected. […]
Fecal specimens were collected daily over approximately 24 hours (±1 hr) prestudy and then beginning on Day -2 and terminating on Day 16. The fecal specimens so collected were weighed (total grams of bulk feces) frozen, stored at -26°C to -20°C and then analyzed for fecal fat content. […]

| SMILES | reduced intestinal fat absorption in dogs [%] |
| --- | --- |
| CC(=O)NCCN1CCc2cc(NC(=O)c3ccccc3-c3ccc(C(F)(F)F)cc3)ccc2C1 [4'-trifluoromethyl-biphenyl-2-carboxylic acid-[2-(2-acetylaminoethyl)-1,2,3,4-tetrahydroisoquinolin-6-yl amide] | 49 |
| CCCCN1CCc2cc(NC(=O)c3ccccc3-c3ccc(C(F)(F)F)cc3)ccc2C1 [4'-trifluoromethyl-biphenyl-2-carboxylic acid-(2-butyl-1,2,3,4-tetrahydroisoquinolin-6-yl)-amide] | 26 |

From patent EP1099439A2, “Use of apo B secretion/MTP inhibitors” (Pfizer Products Inc., priority 1999, dated 2001)
